Results reported in patent publication US20070224167A1, “Novel HCV inhibitor combinations and methods” (priority 2006, published 2007).

Key:
[1] = system: Huh7-BB7 cells; assay: Selection of replicon variants with reduced susceptibility, Study B; assay type: cell-based, HCV genotype 1b; conditions: prolonged treatment
Description: Huh7-BB7 cells are plated at a density of 2-3×10^5 cells per T25 flask and cultured in DMEM medium with 2% FCS in the absence of G418. The cells are treated with DMSO as a control, or HCV-796 alone at 40 and 80 nM, or SCH 503034 alone at 200, 400, 600 and 800 nM, or a combination of HCV-796 and SCH 503034 at 40/400, 80/400, 40/800 and 80/800 nM, respectively, for HCV-796 and SCH 503034. The DMSO concentration in both drug-treated and control cells is 0.5% (v/v). Tissue culture plates are incubated in a 37° C. incubator containing 5% CO2. When cells reach about 80% confluence (about 2-3 days), cells are passaged in a 1:3 dilution and the old medium is replaced with fresh medium containing the compounds at the respective concentrations. Cell pellets containing […] are collected during each passage, and monitored for HCV RNA using quantitative Taqman RT-PCR as described above. […]
Drug susceptibility of the replicon variants is evaluated as previously described in the section “Intracellular antiviral activities in HCV Replicon”. […] The plate is incubated for 72 hours at 37° C. and 5% CO2 before quantification of HCV and GAPDH RNAs. The amounts of HCV, rRNA and GAPDH RNAs are quantified using the TaqMan RT-PCR assay as described above (see Quantification of HCV and 18S Ribosomal RNAs).

[2] = system: HCV replicon cells (Huh-7 cells); assay: Inhibition of replicon RNA levels (3-day assay, Taqman); assay type: cell-based; conditions: Hepatitis C virus
Description: Replicon cells are seeded at ˜5000 cells/well in 96-well collagen I-coated Biocoat plates (Becton Dickinson). Twenty-four hrs post-seeding, inhibitors diluted in DMSO are added to replicon cells (Huh-7 cells). The final concentrations of DMSO and fetal bovine serum are 1% and 10%, respectively. SCH 503034 is serially diluted at 1:2 for a 10-point titration. To each concentration of the SCH 503034, the second inhibitor, HCV-796 or rhIFN-α2b control is titrated in. IFN-α is serially diluted at 1:3, whereas HCV RNA polymerase inhibitor, HCV-796, is serially diluted at 1:2. […] All samples are tested in triplicate. Media and inhibitors are refreshed daily for 3 days at which point the cells are washed with PBS and lysed in 1× cell lysis buffer (Ambion cat #8721). The replicon RNA level is measured using real time PCR (Taqman assay) The amplicon is located in 5B. The PCR primers are: 5B.2F, […] (SEQ ID NO:1) and 5B.2R, […] (SEQ ID NO:2). The probe sequence is FAM-labeled […] (SEQ ID NO:3). GAPDH RNA is used as an endogenous control and is amplified in the same reaction as NS5B (multiplex PCR) using primers and VIC-labeled probe recommended by the manufacturer (PE Applied Biosystem). The real-time RT-PCR reactions are run on an AB1 PRISM 7900HT Sequence Detection System using the following program: 48° C. for 30 min, 95° C. for 10 min, 40 cycles of 95° C. for 15 sec, […] for 1 min. […]

[3] = system: GAPDH RNA, Huh7 BB7 replicon cells; assay: GAPDH RNA in genotype 1b (BB7) replicon cells; assay type: cell-based; conditions: Homo sapiens, Huh-7, 72 h, read-out: GAPDH EC50
Description: HCV genotype 1b, BB7 replicon-containing cell line is derived from a human hepatoma cell line (Huh7). A genotype 1a (H77 isolate; GenBank Accession #AF009606) is derived from replicon-containing cell line (Huh7-1a). The cell lines are cultured at 37° C. and 5% CO2 in Dulbecco's Modified Eagle Media (D-MEM; Invitrogen #11965-084) containing 10% fetal bovine serum (FBS; HyClone #SH300070) supplemented with 1% penicillin/streptomycin (Invitrogen #15140-122), 1% non-essential amino acids (Invitrogen #11140-050), 0.66 mM HEPES buffer, pH 7.55 (Invitrogen #15630-080), and 1 mg/mL G418 (Geneticin®, Invitrogen #11811-031 or #10131-027). Genotype 1a and genotype 1b replicon-containing cell lines contain approximately 1000 and 2000 RNA genome equivalents per cell, respectively, when maintained in a subconfluent monolayer in the presence of 1 mg/mL G418. For compound testing, G418 is eliminated and the FBS concentration is reduced to 2%.
Genotype 1b (BB7) and 1a (H77) cells are seeded in 96-well plates at a sub-confluent density (7000 cells/well) in medium containing 2% FBS without G418. […] The amounts of HCV, rRNA and GAPDH RNAs are quantified using the TaqMan RT-PCR assay.

With `CC(C)(C)NC(=O)N[C@H](C(=O)N1C[C@H]2[C@@H]([C@H]1C(=O)NC(CC1CCC1)C(=O)C(N)=O)C2(C)C)C(C)(C)C` (stereo partly drawn) [SCH 503034, (1R,5S)—N-[3-amino-1-(cyclobutylmethyl)-2,3-dioxopropyl]-3-[2(S)-[[[(1,1-dimethylethyl)amino]carbonyl]amino]-3,3-dimethyl-1-oxobutyl]-6,6-dimethyl-3-azabicyclo[3.1.0]hexan-2(S)-carboxamide] the “Selection of resistant replicon variants” value ([1]; 800 nM SCH 503034 alone) was “selection of replicon variants that have reduced susceptibility”, the IC90 [2] was 400 nM and the EC50 [3] was greater than 3200 nM.
`CNC(=O)c1c(-c2ccc(F)cc2)oc2cc(N(CCO)S(C)(=O)=O)c(C3CC3)cc12` [HCV-796, 5-cyclopropyl-2-(4-fluoro-phenyl)-6-[(2-hydroxy-ethyl)-methanesulfonyl-amino]-benzofuran-3-carboxylic acid methylamide] was tested, and the “Selection of resistant replicon variants” value ([1]; up to 80 nM HCV-796 alone) was “selection of replicon variants that have reduced susceptibility”, the IC90 [2] was 30 nM and the EC50 [3] was greater than 2430 nM.
